Test results reported in patent EP4737449A1 (Changchun Genescience Pharmaceutical Co., Ltd., priority 2023, dated 2025).

Assays:
[1] = system: BXPC-3 cells; test: BXPC-3 3D cell proliferation assay (methylcellulose, CTG, 7 days); format: cell-based; conditions: Homo sapiens, 168 h, drug treatment for 7 days
Method: 1 g of methylcellulose was weighed and placed into a glass ware and autoclaved. After cooling, 100 mL of the corresponding culture medium was added, the mixture was mixed vigorously, and stirred on a 4°C magnetic stirrer; the mixture was completely dissolved after 48 h and stored at 4°C.
The cells were resuscitated with the corresponding culture medium, and were maintained to grow to the logarithmic growth phase. The cell suspension was collected and centrifuged at 1000 rpm for 5 min. After centrifugation was completed, the supernatant was removed and the cells were re-suspended with an appropriate amount of culture medium. […]
After adding 10 µL of culture medium containing the vehicle to each well, the CTG plate was read. […] The cell plate was placed at room temperature for 10 min to stabilize the luminescent signal, and the luminescent value was read using EnVision. […]
The CTG reagent was thawed and the cell plate was equilibrated to room temperature for 30 min. […] The cell plate was placed at room temperature for 10 min to stabilize the luminescent signal, and the luminescent value was read using EnVision.
Cell viability was calculated using the following formula: (Vsample- VBlank) /(Vvehicle control- VBlank) ×100%. […] The S-shaped dose-survival curve was plotted and IC50 calculated by GraphPad Prism software using non-linear regression model.

[2] = Pharmacokinetic study in beagles; format: in vivo; conditions: dog, plasma; for bioavailability: IV 1mpk/PO 2mpk
Method: On the day of administration, the test sample was prepared using a 5%DMSO+5%Solutol+90%Saline vehicle formula, and the drug solution was prepared and kept ready for use.
The IV group received a dose of 1 mg/kg, and the PO group received a dose of 2 mg/kg. The animals were fasted overnight before administration.
The animals were weighed before administration, and the dose was calculated based on the body weight. The drug was administered once via IV and PO on the day of administration. After administration, blood was collected from an appropriate vein at 0.083 h, 0.25 h, 0.5 h, 1.0 h, 2.0 h, 4.0 h, 6.0 h, 8.0 h and 24.0 h, about 1 mL each time, placed in EDTA-K2 anticoagulation blood collection tubes, centrifuged at 4000 rpm for 10 min (4°C), and plasma was separated within 1 h. The plasma was drawn into labeled EP tubes (the label should at least indicate the subject code, animal number, collection time, collection date, etc.), and stored at -80°C for testing. The process from blood collection to centrifugation was carried out in ice bath. The animals were allowed to eat and have free access to water 3 h after administration. The concentration of the test sample in beagle plasma was detected using validated LC-MS/MS.

[3] = system: NUGC-3 human gastric cancer subcutaneous xenograft; test: Efficacy in NUGC-3 human gastric cancer subcutaneous xenograft model; format: in vivo, BALB/c Nude mouse; conditions: PO, 19 days
Method: NUGC-3 cells were cultured in RPMI-1640 medium containing 10% FBS. NUGC-3 cells in the exponential growth phase were collected, the total amount of cells required was calculated, the cells were re-suspended in PBS to a suitable concentration and then an equal volume of Matrigel was added for subcutaneous tumor seeding in BALB/c Nude mice. The concentration of the cell suspension was 5x10^6/0.1 mL.
0.1 mL (5×10^6 NUGC-3 cells) of cell suspension (PBS : Matrigel = 1:1, V/V) was seeded subcutaneously on the right back of each mouse. When the tumor grew to have an average volume of 128.4 mm^3, group-based drug administration began (vehicle: 0.2% HPC + 0.5% Tween 80), and the average tumor volume of the enrolled animals was 146.1 mm^3.
Table 11 Route, dose and regimen of administration in the subcutaneous xenograft model

[4] = Associated plasma PK in the LU5269 xenograft study; format: in vivo, NOD/SCID mice; conditions: mouse, PO, QD*21, plasma after the last administration
Method: At the endpoint of the experiment, plasma samples from groups G2-G6 were collected: plasma was collected from the first 3 mice in each group at 0 h, 1 h, 2 h, and 4 h after the last administration; plasma was collected from the last 3 mice in each group at 0.5 h, 6 h, 9 h, and 24 h after the last administration.
Table 12 Route, dose and regimen of administration in the subcutaneous xenograft model

CN1CC[C@@H](Nc2cccc3c(CC(F)(F)F)c(C#CCNC(=O)c4cnn(C(C)(C)C)c4N)nn23)[C@@H](F)C1 [Compound 047]
IC50 [1]: 180 nM
AUC(0-t) ([2]; 1 mg/kg, IV 1mpk): 1400 ng·h/mL
C0 ([2]; 1 mg/kg, IV 1mpk): 414 ng/mL
Vd ([2]; 1 mg/kg, IV 1mpk): 3.8 L/kg
clearance ([2]; 1 mg/kg, IV 1mpk): 12.8 mL/min/kg
half-life ([2]; 1 mg/kg, IV 1mpk): 5.6 h
AUC(0-t) ([2]; 2 mg/kg, PO 2mpk): 1640 ng·h/mL
Cmax ([2]; 2 mg/kg, PO 2mpk): 199 ng/mL
Tmax ([2]; 2 mg/kg, PO 2mpk): 2 h
half-life ([2]; 2 mg/kg, PO 2mpk): 14 h
bioavailability [2]: 42%
tumor volume inhibition rate TGI ([3]; 50 mpk, BID): 68%
tumor volume inhibition rate TGI ([3]; 100 mpk, BID): 93%
tumor volume inhibition rate TGI ([3]; 150 mpk, BID): 103%
tumor volume inhibition rate TGI ([3]; 150 mpk, QD): 91%
AUC(0-t) ([4]; 50 mg/kg, 50mpk): 11700 ng·h/mL
Cmax ([4]; 50 mg/kg, 50mpk): 1690 ng/mL
half-life ([4]; 50 mg/kg, 50mpk): 2.2 h
AUC(0-t) ([4]; 75 mg/kg, 75mpk): 24400 ng·h/mL
Cmax ([4]; 75 mg/kg, 75mpk): 2590 ng/mL
AUC(0-t) ([4]; 100 mg/kg, 100 mpk): 39400 ng·h/mL
Cmax ([4]; 100 mg/kg, 100 mpk): 4440 ng/mL
half-life ([4]; 100 mg/kg, 100 mpk): 1.9 h
AUC(0-t) ([4]; 150 mg/kg, 150mpk): 68000 ng·h/mL
Cmax ([4]; 150 mg/kg, 150mpk): 5550 ng/mL
half-life ([4]; 150 mg/kg, 150mpk): 2.6 h

CNC(=O)c1ccc(NCC#Cc2cc3c(N[C@@H]4CCN(C)C[C@@H]4F)cccc3n2CC(F)(F)F)c(OC)c1 [Control compound, reference compound]
IC50 [1]: 769 nM
AUC(0-t) ([2]; beagle, 1 mg/kg, IV 1mpk): 849 ng·h/mL
C0 ([2]; beagle, 1 mg/kg, IV 1mpk): 277 ng/mL
Vd ([2]; beagle, 1 mg/kg, IV 1mpk): 6.7 L/kg
clearance ([2]; beagle, 1 mg/kg, IV 1mpk): 20.4 mL/min/kg
half-life ([2]; beagle, 1 mg/kg, IV 1mpk): 4.8 h
bioavailability ([2]; beagle, 2 mg/kg): 82%
AUC(0-t) ([2]; beagle, 2 mg/kg, PO 2mpk): 1490 ng·h/mL
Cmax ([2]; beagle, 2 mg/kg, PO 2mpk): 101 ng/mL
Tmax ([2]; beagle, 2 mg/kg, PO 2mpk): 4.7 h
half-life ([2]; beagle, 2 mg/kg, PO 2mpk): 6.7 h
tumor volume inhibition rate TGI ([3]; 50 mpk, QD): 52%
tumor volume inhibition rate TGI ([3]; 100 mpk, QD): 77%
AUC(0-t) ([4]; NOD/SCID, 100 mg/kg, 100 mpk): 413000 ng·h/mL
Cmax ([4]; NOD/SCID, 100 mg/kg, 100 mpk): 24300 ng/mL
